According to PMC3704178 (ACS medicinal chemistry letters, 2013):

How the values were obtained:
[1] = tested on: PrP^Sc level in RML prion-infected mouse neuroblastoma cells (ScN2a-cl3); assay type: cell-based
[2] = Microsomal stability, mouse microsomes
[3] = Microsomal stability, human microsomes

CC(=O)c1ccc(N2CCN(Cc3ccccc3)CC2)cc1 [Compound 1]
Antiprion potency EC50 ± SEM [1]: micromolar range

CC(=O)c1ccc(N2CCN(Cc3cccnc3)CC2)cc1 [Compound 7]
Antiprion potency EC50 ± SEM [1]: micromolar range

CC(=O)c1ccc(N2CCN(Cc3cccs3)CC2)cc1 [Compound 13]
Antiprion potency EC50 ± SEM [1]: micromolar range

CC(=O)c1ccc(N2CCN(Cc3ccc(C)o3)CC2)cc1 [Compound 19]
Antiprion potency EC50 ± SEM [1]: micromolar range

c1cncc(CN2CCN(c3ccc(-c4nc5ccccc5o4)cc3)CC2)c1 [Compound 41]
Fold more potent (EC50) than furanyl 42 and thiophenyl 43 [1]: ≥ 13 fold

c1cncc(CN2CCN(c3ccc(-c4nc5ccccc5s4)cc3)CC2)c1 [Compound 44]
Fold improvement of t1/2 in mouse microsomes compared to 41 [2]: approximately 2 fold

Fc1ccc(CN2CCN(c3ccc(-c4nc5ccccc5o4)cc3)CC2)cn1 [Compound 46]
Fold less potent (EC50) than parent pyridine analog 41 [1]: 1.5 fold

COc1ccc(CN2CCN(c3ccc(-c4nc5ccccc5o4)cc3)CC2)cn1 [Compound 47]
Fold less potent (EC50) than parent pyridine analog 41 [1]: 4.5 fold | Fold improvement of t1/2 in mouse microsomes compared to 41 [2]: approximately 3 fold | Fold increase in stability in human microsomes compared to 41 [3]: approximately 3 fold
